The values below come from US8865894B2, “Oxazolidin-2-one compounds and uses thereof” (Novartis AG, priority 2012, dated 2014).

The structures appear in SMILES notation.

The assay addresses PI3Kgamma (Homo sapiens, UniProt P48736). The experiment in a line: Biochemical PI3Kgamma (TR-FRET Adapta Universal Kinase Assay). To be noted: mean of n measurements, read-out: PIK3g/ IC50. Here is the method:
Test compounds were dissolved in DMSO (10 mM) and transferred into 1.4 mL flat bottom or V-shaped Matrix tubes carrying a unique 2D matrix chip by individual Novartis compound hubs. The numbers of these chips were distinctively linked to Novartis Pharma Numbers. The stock solutions were stored at −20° C. if not used immediately. For the test procedure the vials were defrosted and identified by a scanner whereby a working sheet was generated that guided the subsequent working steps.
Compounds were either manually diluted in DMSO for individual experiments (96 wells enabling 10 cpds at 8 (single points) concentrations) as described in or prepared as described below if tested for profiling in 384-wells. This format enabled the assay of maximally 40 individual test compounds at 8 concentrations (single points) including 4 reference compounds. The dilution protocol included the production of “pre-dilution plates”, “master plates” and “assay plates”.
96 polypropylene well plates were used as pre-dilution plates. A total of 4 pre-dilution plates were prepared including 10 test compounds each on the plate positions A1-A10, one standard compound at A11 and one DMSO control at A12. Programs have been written to run these pipetting steps on the HamiltonSTAR robots.
100 μL of individual compound dilutions including standard compound and controls of the 4 “pre-dilution plates” were transferred into a 384 “master plate” including the following concentrations 1,820, 564, 182, 54.6, 18.2, 5.46, 1.82 and 0.546 μM, respectively in 90% DMSO.
Identical “assay plates” were then prepared by pipetting 50 nL each of compound dilutions of the “master plates” into 384-well “assay plates”. The compounds were mixed with 4.5 μL of assays components plus 4.5 μL enzyme corresponding to a 1:181 dilution enabling the final concentration of 10, 3.0, 1.0, 0.3, 0.1, 0.03, 0.01 and 0.003 μM, respectively. The preparation of the “master plates” was handled by the Matrix PlateMate Plus robot and replication of “assay plates” by the HummingBird robot.
The TR-FRET Adapta™ Universal Kinase Assay Kit was purchased from Invitrogen Corporation (Carlsbad/CA, USA) (Cat. No. PV5099). The kit contains the following reagents: Adapta Eu-anti-ADP Antibody (Europium labeled anti-ADP antibody in HEPES buffered saline, Cat. No. PV5097), Alexa Fluor® 647-labeled ADP tracer (Alexa Fluor® 647-labeled ADP tracer in HEPES buffered saline, Cat. No. PV5098), proprietary TR-FRET dilution buffer pH 7.5 (Cat. No. PV3574).
PIK3CD substrate Phosphatidylinositol was obtained from Invitrogen (vesicules consisting of 2 mM PI in 50 mM HEPES pH7.5; Cat. No. PV5371). PIK3CG substrate Phosphatidylinositol-4,5-bisphosphate (PIP(4,5)2 was obtained from Invitrogen (PIP2:PS large unilamellar vesicules consisting of 1 mM PIP2: 19 mM PS in 50 mM HEPES pH7.5, 3 mM MgCl2, 1 mM EGTA; Cat. No. PV5100).
Time-Resolved Fluorescence Resonance Energy Transfer (TR-FRET) is a technology based on energy transfer between two adjacent dyes, from an excited electron in one dye (the donor) to an electron of an adjacent dye (the acceptor) through resonance, then released as a photon. This energy transfer is detected by an increase in the fluorescence emission of the acceptor, and a decrease in the fluorescence emission of the donor. TR-FRET assays for protein kinases use a long-lifetime lanthanide Terbium or Europium chelates as the donor species which overcome interference from compound autofluorescence or light scatter from precipitated compounds, by introducing a delay after excitation by a flashlamp excitation source. Results are often expressed as a ratio of the intensities of the acceptor and donor fluorophores. The ratiometric nature of such a value corrects for differences in assay volumes between wells, as well as corrects for quenching effects due to colored compounds. The Adapta™ assay can be divided into two phases: a kinase reaction phase and an ADP detection phase. […]
For orientation: Time-resolved FRET reads energy transfer from a long-lived donor to a nearby acceptor.

PI3Kgamma, sequence (P48736 whole entry, species assumed): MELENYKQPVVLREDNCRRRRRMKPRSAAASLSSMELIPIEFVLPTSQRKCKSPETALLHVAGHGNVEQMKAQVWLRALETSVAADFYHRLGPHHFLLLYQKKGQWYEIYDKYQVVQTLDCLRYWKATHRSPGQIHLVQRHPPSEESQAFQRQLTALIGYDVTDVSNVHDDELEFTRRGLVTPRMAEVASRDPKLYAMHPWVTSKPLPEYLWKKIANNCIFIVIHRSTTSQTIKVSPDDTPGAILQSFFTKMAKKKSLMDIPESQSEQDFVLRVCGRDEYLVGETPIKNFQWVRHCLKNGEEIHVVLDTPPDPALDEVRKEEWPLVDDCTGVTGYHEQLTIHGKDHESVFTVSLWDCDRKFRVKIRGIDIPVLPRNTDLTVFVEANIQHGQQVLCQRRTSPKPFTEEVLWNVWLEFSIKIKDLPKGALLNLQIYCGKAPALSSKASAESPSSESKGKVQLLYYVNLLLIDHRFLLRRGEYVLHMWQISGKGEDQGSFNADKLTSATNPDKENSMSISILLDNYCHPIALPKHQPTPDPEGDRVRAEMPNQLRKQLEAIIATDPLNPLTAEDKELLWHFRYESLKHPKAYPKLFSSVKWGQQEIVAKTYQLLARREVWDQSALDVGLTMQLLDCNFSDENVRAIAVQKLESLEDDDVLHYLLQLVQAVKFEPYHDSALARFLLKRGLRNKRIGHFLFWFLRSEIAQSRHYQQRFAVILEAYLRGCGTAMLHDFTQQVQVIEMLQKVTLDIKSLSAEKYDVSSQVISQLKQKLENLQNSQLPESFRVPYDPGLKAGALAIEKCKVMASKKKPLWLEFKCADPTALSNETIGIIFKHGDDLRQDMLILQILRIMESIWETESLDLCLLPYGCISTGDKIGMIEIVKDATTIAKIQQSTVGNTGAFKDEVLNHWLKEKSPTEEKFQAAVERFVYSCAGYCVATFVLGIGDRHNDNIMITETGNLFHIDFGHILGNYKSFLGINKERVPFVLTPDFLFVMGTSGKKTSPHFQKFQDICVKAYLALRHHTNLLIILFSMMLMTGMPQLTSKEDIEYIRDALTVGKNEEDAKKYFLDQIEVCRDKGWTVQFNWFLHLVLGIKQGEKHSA

As for `C[C@H]1C(CC(C)(C)O)OC(=O)N1c1cc(-c2cnc(N)nc2C(F)(F)F)nc(N2CCOCC2)n1` (mixture of isomers) [Example 26, (4S,5R)- and (4S,5S)-3-(2′-amino-2-morpholino-4′-(trifluoromethyl)-[4,5′-bipyrimidin]-6-yl)-5-(2-hydroxy-2-methylpropyl)-4-methyloxazolidin-2-one], the IC50 was 290 nM.

Take `CC1(CO)COC(=O)N1c1cc(-c2cnc(N)nc2C(F)(F)F)nc(N2CCOCC2)n1` (racemic) [Example 3, 3-(2′-amino-2-morpholino-4′-(trifluoromethyl)-4,5′-bipyrimidin-6-yl)-4-(hydroxymethyl)-4-methyloxazolidin-2-one]: the IC50 was 516 nM.

For the compound `Nc1ncc(-c2cc(N3C(=O)O[C@@H]4[C@@H](O)CC[C@@H]43)nc(N3CCOCC3)n2)c(C(F)(F)F)n1` (racemic) [Example 22, (3aR*,6R*,6aR*)-3-(2′-Amino-2-morpholino-4′-(trifluoromethyl)-[4,5′-bipyrimidin]-6-yl)-6-hydroxyhexahydro-2H-cyclopenta[d]oxazol-2-one], the IC50 came to 145 nM.

Take `Nc1ncc(-c2cc(N3C(=O)OC4C(O)CCC43)nc(N3CCOCC3)n2)c(C(F)(F)F)n1` (single isomer, unassigned) [Example 22A]: the IC50 worked out at 110 nM.

Take `Nc1ncc(-c2cc(N3C(=O)OC4C(O)CCC43)nc(N3CCOCC3)n2)c(C(F)(F)F)n1` (single isomer, unassigned) [Example 22B]: the IC50 was found to be 410 nM.

Consider `C[C@@H](O)C[C@H]1OC(=O)N(c2cc(-c3cnc(N)nc3C(F)(F)F)nc(N3CCOCC3)n2)[C@H]1C` (single isomer, unassigned) [Example 24], for which the IC50 was 540 nM.

For the compound `C[C@H](O)CC1OC(=O)N(c2cc(-c3cnc(N)nc3C(F)(F)F)nc(N3CCOCC3)n2)[C@H]1C` (single isomer, unassigned) [Example 25], the IC50 is 205 nM.

Regarding `C[C@H]1COC(=O)N1c1cc(-c2cnc(N)nc2C(F)(F)F)nc(N2CCOCC2)n1` [Example 1, (S)-3-(2′-Amino-2-morpholin-4-yl-4′-trifluoromethyl-[4,5′]bipyrimidinyl-6-yl)-4-methyl-oxazolidin-2-one], the IC50 was 276 nM.

As for `CC1(C)OC(=O)N(c2cc(-c3cnc(N)nc3C(F)(F)F)nc(N3CCOCC3)n2)[C@H]1CO` [Example 2, (S)-3-(2′-Amino-2-morpholin-4-yl-4′-trifluoromethyl-[4,5′]bipyrimidinyl-6-yl)-4-hydroxymethyl-5,5-dimethyl-oxazolidin-2-one], the IC50 amounted to 348 nM.

Turning to `Nc1ncc(-c2cc(N3C(=O)O[C@H]4CCCC[C@@H]43)nc(N3CCOCC3)n2)c(C(F)(F)F)n1` [Example 4, (3aS,7aS)-3-(2′-Amino-2-morpholin-4-yl-4′-trifluoromethyl-[4,5′]bipyrimidinyl-6-yl)-hexahydro-benzooxazol-2-one], the IC50 was found to be 238 nM.

Take `COC[C@H]1COC(=O)N1c1cc(-c2cnc(N)nc2C(F)(F)F)nc(N2CCOCC2)n1` [Example 5, (S)-3-(2′-Amino-2-morpholin-4-yl-4′-trifluoromethyl-[4,5′]bipyrimidinyl-6-yl)-4-methoxymethyl-oxazolidin-2-one]: the IC50 came to 329 nM.

Turning to `C[C@@H]1OC(=O)N(c2cc(-c3cnc(N)nc3C(F)(F)F)nc(N3CCOCC3)n2)[C@H]1CO` [Example 6], the IC50 was found to be 258 nM.

Regarding `[2H]C1([2H])OC([2H])([2H])C([2H])([2H])N(c2nc(-c3cnc(N)nc3C(F)(F)F)cc(N3C(=O)O[C@H](C)[C@@H]3CO)n2)C1([2H])[2H]` [Example 8], the IC50 worked out at 237 nM.

For the compound `Nc1ncc(-c2cc(N3C(=O)OC[C@@H]3CCO)nc(N3CCOCC3)n2)c(C(F)(F)F)n1` [Example 9, (S)-3-(2′-Amino-2-morpholin-4-yl-4′-trifluoromethyl-[4,5′]bipyrimidinyl-6-yl)-4-(2-hydroxy-ethyl)-oxazolidin-2-one], the IC50 is 1130 nM.

With `C[C@H]1OC(=O)N(c2cc(-c3cnc(N)nc3C(F)(F)F)nc(N3CCOC[C@@H]3C)n2)[C@H]1CO` [Example 10, (4S,5R)-3-[2′-Amino-2-((S)-3-methyl-morpholin-4-yl)-4′-trifluoromethyl-[4,5′]bipyrimidinyl-6-yl]-4-hydroxymethyl-5-methyl-oxazolidin-2-one], the IC50 came to 158 nM.

Regarding `Nc1ncc(-c2cc(N3CCOC3=O)nc(N3CCOCC3)n2)c(C(F)(F)F)n1` [Example 11, 3-(2′-Amino-2-morpholin-4-yl-4′-trifluoromethyl-[4,5′]bipyrimidinyl-6-yl)-oxazolidin-2-one, reference compound], the IC50 came to 998 nM.

Consider `C[C@H]1OC(=O)N(c2cc(-c3cnc(N)nc3C(F)(F)F)nc(N3CCOCC3)n2)[C@H]1COC=O` [Example 12, Formic acid (4S,5R)-3-(2′-amino-2-morpholin-4-yl-4′-trifluoromethyl-[4,5′]bipyrimidinyl-6-yl)-5-methyl-2-oxo-oxazolidin-4-ylmethyl ester], for which the IC50 is 1660 nM.

For `C[C@H]1COCCN1c1nc(-c2cnc(N)nc2C(F)(F)F)cc(N2C(=O)OC[C@@H]2C)n1` [Example 13, (S)-3-[2′-Amino-2-((S)-3-methyl-morpholin-4-yl)-4′-trifluoromethyl-[4,5′]bipyrimidinyl-6-yl]-4-methyl-oxazolidin-2-one], the IC50 is 386 nM.

As to `Nc1ncc(-c2cc(N3C[C@@H](CO)OC3=O)nc(N3CCOCC3)n2)c(C(F)(F)F)n1` [Example 14, (S)-3-(2′-Amino-2-morpholin-4-yl-4′-trifluoromethyl-[4,5′]bipyrimidinyl-6-yl)-5-hydroxymethyl-oxazolidin-2-one], the IC50 stood at 1230 nM.

As for `C[C@H]1[C@H](CO)OC(=O)N1c1cc(-c2cnc(N)nc2C(F)(F)F)nc(N2CCOCC2)n1` [Example 15, (4S,5R)-3-(2′-Amino-2-morpholin-4-yl-4′-trifluoromethyl-[4,5′]bipyrimidinyl-6-yl)-5-hydroxymethyl-4-methyl-oxazolidin-2-one], the IC50 is 338 nM.

Regarding `C[C@H]1CN(c2cc(-c3cnc(N)nc3C(F)(F)F)nc(N3CCOCC3)n2)C(=O)O1` [Example 16, (S)-3-(2′-Amino-2-morpholin-4-yl-4′-trifluoromethyl-[4,5′]bipyrimidinyl-6-yl)-5-methyl-oxazolidin-2-one], the IC50 is 770 nM.

As for `[2H]C1([2H])OC([2H])([2H])C([2H])([2H])N(c2nc(-c3cnc(N)nc3C(F)(F)F)cc(N3C(=O)OC[C@@H]3C)n2)C1([2H])[2H]` [Example 17, (S)-3-(2′-amino-2-D8-morpholino-4′-(trifluoromethyl)-[4,5′-bipyrimidin]-6-yl)-4-methyloxazolidin-2-one], the IC50 amounted to 328 nM.

With `C[C@H]1OC(=O)N(c2cc(-c3cnc(N)nc3C(F)(F)F)nc(N3CCOCC3)n2)[C@H]1CO` [Example 18, (4S,5R)-3-(2′-Amino-2-morpholin-4-yl-4′-trifluoromethyl-[4,5′]bipyrimidinyl-6-yl)-4-hydroxymethyl-5-methyl-oxazolidin-2-one], the IC50 was 253 nM.

For the compound `C[C@H]1[C@@H](CO)OC(=O)N1c1cc(-c2cnc(N)nc2C(F)(F)F)nc(N2CCOCC2)n1` [Example 19, (4S,5S)-3-(2′-Amino-2-morpholin-4-yl-4′-trifluoromethyl-[4,5′]bipyrimidinyl-6-yl)-5-hydroxymethyl-4-methyl-oxazolidin-2-one], the IC50 worked out at 184 nM.

`Nc1ncc(-c2cc(N3C[C@H](CO)OC3=O)nc(N3CCOCC3)n2)c(C(F)(F)F)n1` [Example 20, (R)-3-(2′-Amino-2-morpholin-4-yl-4′-trifluoromethyl-[4,5′]bipyrimidinyl-6-yl)-5-hydroxymethyl-oxazolidin-2-one]: the IC50 is 601 nM.
